In paper PMC8635623, “A click chemistry approach to pleuromutilin derivatives, evaluation of anti-MRSA activity and elucidation of binding mode by surface plasmon resonance and molecular docking” (Journal of Enzyme Inhibition and Medicinal Chemistry, 2021):
≈ marks a conversion by molar mass, not a printed value. Where two headings read alike, the source gives them in different places.

How the values were obtained:
MRSA ATCC 43300 [1] = assay: Constant concentration time-kill curves; type: cell-based, methicillin-resistant S. aureus; conditions: for time-kill kinetics result: 8 × MIC, cultured for 24 h; for concentration giving a bactericidal effect: time-kill, MRSA
Method: The time-kill kinetic approach was used to investigate the anti-MRSA activity of compounds 50, 62 and 64. The experimental results were presented in graphic form in Figure 2. Compared with growth control, compounds 50 and 62 inhibited the reproduction of bacteria to a certain extent.
The time-kill curve determination is an in vitro bactericidal kinetics model, which is used to study the sustained killing effect of bacteria within 24 h at a certain drug concentration. The bactericidal activity of compounds 50, 62 and 64 was determined by the time-kill curve as reported in our previous work[18]^,[22]. MRSA grown in MH broth were diluted to approximately 1 × 10^6 CFU/mL. […] 100 µL of samples were collected from the subculture inoculums before culture (0 h) and 3 h, 6 h, 9 h and 24 h after culture, and serially diluted 10-flod with sterile saline. The dilution of each gradient (25 µL) was uniformly suspended on the MH agar plates. The total bacterial CFU/mL on the plates were counted to calculate the bacterial colonies after up to 20 h of incubation at 37 °C. The results are represented by Mean ± SD, with the log10 CFU/mL of bacteria counts as the ordinate and time as the abscissa, the time-kill curves of different concentrations of compounds against MRSA were established respectively.

MRSA ATCC 43300 [2] = assay: MIC/MBC by broth micro dilution; type: cell-based, methicillin-resistant S. aureus; conditions: for MIC: 37 °C, 24 h; for MBC: lowest concentration reducing viable counts by 99.9%
Method: (§1) All the synthesised 1,2,3-triazole linked pleuromutilin analogues were screened for in vitro antibacterial activities against methicillin-resistant S. aureus (ATCC 43300), S. aureus (ATCC 29213), and two clinical strains of S. aureus (AD3 and 144, isolated from Guangdong Province, China). The MICs and MBCs of the synthesised pleuromutilin derivatives along with pleuromutilin and tiamulin used as the reference antibacterial drugs, were determined by the broth micro dilution methods according to the Clinical and Laboratory Standards Institute (CLSI)[18].
(§2) The MIC of these novel pleuromutilin derivatives against methicillin-resistant S. aureus (ATCC 43300), S. aureus (ATCC 29213), S. aureus (AD3) and S. aureus (144) were determined by using pleuromutilin and tiamulin as positive control. MIC values were determined by the broth micro dilution methods in accordance with the Clinical and Laboratory Standards Institute (2012). Stock solutions of these compounds were dissolved in methanol to make a stock solution with a concentration of 1280 µg/mL. The working solutions (640 µg/mL) were obtained by diluting stock solutions in sterile Mueller-Hinton (MH) broth. The bacterial solution and solutions of these compounds with a final concentration of 0.016–32 µg/mL were distributed into 96-well plates, with a total volume of 200 µL. Three parallel experiments for each compound concentration. The plates were incubated at 37 °C for 24 h.
(§3) MBC values were determined according to CLSI (2003) and previously report with slightly modification[18]^,[28]^,[31]. After obtaining the MIC results, the 96-well plates were incubated at 37 °C for 24 h. 100 µL of the bacterial solution from the wells with no visible growth was inoculated on MH agar plates. The MH agar plates were incubated at 37 °C for colony count. The MBC was determined as the lowest concentration of compound, which reduces the viable counts for 99.9%.

S. aureus 144 = assay: MIC/MBC by broth micro dilution; type: cell-based; conditions: Staphylococcus aureus, S. aureus 144 (clinical strain); for MIC: 37 °C, 24 h; for MBC: lowest concentration reducing viable counts by 99.9%
Method: as §1, §2, §3

S. aureus ATCC 29213 = assay: MIC/MBC by broth micro dilution; type: cell-based; conditions: Staphylococcus aureus; for MIC: ATCC29213, 37 °C, 24 h; for MBC: ATCC29213, lowest concentration reducing viable counts by 99.9%
Method: as §1, §2, §3

S. aureus AD3 = assay: MIC/MBC by broth micro dilution; type: cell-based; conditions: Staphylococcus aureus, S. aureus AD3 (clinical strain); for MIC: 37 °C, 24 h; for MBC: lowest concentration reducing viable counts by 99.9%
Method: as §1, §2, §3

50S ribosome = assay: SPR binding studies; design: species or system S. aureus; conditions: for Ka (association rate constant) / Kd (dissociation rate constant): PBST pH 7.4, compound immobilised, 50S ribosome 200-3200 nM
Method: In order to gain some insight into the binding mode of the potent inhibitors, SPR experiments were performed. […] The response unit (RU) of surface resonance was compared to determine the different binding affinities between each compound and the 50S ribosome. The association rate constants (Ka) and dissociation rate constant (Kd) represent the rate of association and dissociation in the binding reaction, respectively. The equilibrium dissociation constant (KD) indicated the degree of dissociation of compounds and the 50S ribosome in the equilibrium state. Their binding curves during the experiment were shown in Figure 3, as well as the concentration gradient curves were shown in Figure SI 27–34.
SPR biosensing experiments were performed at 4 °C using the bScreen LB 991 Label-free Microarray System (Berthold Technologies, Germany) and the photo-cross-linker sensor chip. The BIODOT™ AD-1520 Array Printer (BIODOT Inc., USA) was used for printing samples and control on the chip surface. A UV Spectroirradiator 1020 (Amersham Life Science, USA) was used for the photo-cross-linking reaction quickly after the array print.
As described in the reference[32–34] with minor modifications, the ribosome of S. aureus were extracted and purified to obtain 50S ribosome. MRSA (ATCC 43300) was incubated overnight at 37 °C. The bacteria solution was inoculated into a new culture solution, and cells were collected at an OD600 = 1.5. The bacterial culture was centrifuged 3 times at 3,500 rpm using a TX-400 rotor at 4 °C for 30 min, and then the supernatant was discarded. Cells were washed twice with 10 mM Tris-HCl (pH = 7.5), and suspend the precipitate with buffer A (20 mM HEPES-HCl pH = 7.5, 100 mM NH4Cl, 21 mM Mg(OAc)2, 1 mM EDTA, 1 mM DTT). Cells were lysed by repeated (>3×) snap-freezing and thawing, then ultrasonic disintegration was performed. To remove cell debris, the crushed product was centrifuged at 20,000 rpm for 90 min at 4 °C.The lysate layered on 15 ml of a sucrose cushion (10 mM HEPES-HCl pH = 7.5, 500 mM KCl, 25 mM Mg(OAc)2, 1.1 M sucrose, 0.5 mM EDTA, 1 mM DTT) and centrifuged in the ultracentrifuge(Optima^TM TL 100) at 45,000 rpm using a type70Ti rotor at 4 °C for 15 h to obtain ribosomal particles. Pellet was resuspended in 3 ml of buffer E (10 mM HEPES-HCl pH = 7.5, 100 mM KCl, 1 mM Mg(OAc)2, 0.5 mM EDTA, 1 mM DTT), then layered on 9 ml of 7–30% sucrose gradient and ultracentrifuged at 17,100 rpm using a typeSW40Ti rotor at 4 °C for 15 h. The gradient was analysed on the AKTA explorer system. The fractions corresponding to 50S ribosome were collected and PEG 20000 was added to a final concentration of 4.5% w/v. Ribosomes were pelleted by centrifugation at 20,000 rpm for 12 min, the pellet was gently dissolved in 200 µL of storage buffer (10 mM HEPES-HCl pH = 7.5, 15 mM KCl, 60 mM NH4Cl, 10 mM Mg(OAc)2, 1 mM DTT) and then flash-frozen for storage at −80 °C.
Dilute these compounds to a concentration of 10 mM with DMSO as the stationary phase printing working solution. After that, the printing working solution was printed on the sensor chip by the array printer, and each sample was printed four times repeatedly. Four groups of positive control dots (12 rapamycin dots, 3 in each corner) were printed on the four corners of the sensor chip respectively. The sample dots were dried in vacuum, and the sensor chip was quickly transferred to the UV spectroirradiator for a photo-cross-linking reaction. Subsequently, the sensor chip was washed with DMF, methanol, and water for 15 min in turn, followed by blowing dry under nitrogen, and then assembled with Flowcell Cover.
The binding studies were performed with PBST running buffer (pH = 7.4, 0.1% Tween 20) at a constant flow rate of 0.5 µL/s in instrument. 50S Ribosome was diluted separately with PBST running buffer to 200 nM, 400 nM, 800 nM, 1600 nM and 3200 nM and injected consecutively for 600 s at associating stage, followed by running buffer for 360 s at each dissociating stage. […]

[3] = Staphylococcus aureus, read-out: MIC
[4] = 4 °C, PBST pH 7.4, KD = Kd/Ka, read-out: KD (equilibrium dissociation constant)

MIC (MRSA ATCC 43300 [2]; [3]) | MIC (S. aureus 144) | MIC (S. aureus ATCC 29213) | MIC (S. aureus AD3) | Kd (50S ribosome; [4]) | Ka (association rate constant) (50S ribosome; 4 °C) | Kd (dissociation rate constant) (50S ribosome; 4 °C) | Kd (50S ribosome; read-out: interaction intensity level for 50S ribosome (KD class)) | MIC (MRSA ATCC 43300 [2]) | Structure (SMILES) | time-kill kinetics result (MRSA ATCC 43300 [1]) | concentration giving a bactericidal effect (MRSA ATCC 43300 [1]) | MBC (MRSA ATCC 43300 [2]; Staphylococcus aureus) | MBC (S. aureus 144) | MBC (S. aureus ATCC 29213) | MBC (S. aureus AD3) | MRSA killing, log10 CFU/mL reduction (MRSA ATCC 43300 [1]; 16 × MIC, after 3 h incubation) | bacterial growth inhibition, log10 CFU/mL reduction (MRSA ATCC 43300 [1]; 16 × MIC, at 24 h)
1 µg/mL (≈ 1.54 µM) | 2 µg/mL (≈ 3.08 µM) | 2 µg/mL (≈ 3.08 µM) | 1 µg/mL (≈ 1.54 µM) | 17.7 µM | 734 M⁻¹ s⁻¹ | 0.013 s⁻¹ | 10 to 1000 µM |  | C=C[C@]1(C)C[C@@H](OC(=O)Cn2cc(CN3CCN(c4ccccc4[N+](=O)[O-])CC3)nn2)[C@]2(C)[C@H](C)CC[C@]3(CCC(=O)[C@H]32)[C@@H](C)[C@@H]1O [Compound 62, 22-(2-(4-(4-(2-Nitrophenyl)-piperazin-1-yl)-methyl)-1H-1,2,3-triazol-1-yl)-22-deoxy pleuromutilin] | relatively anti-MRSA bacteriostatic kinetics | higher than 4 × MIC | 2 µg/mL (≈ 3.08 µM) | 4 µg/mL (≈ 6.17 µM) | 2 µg/mL (≈ 3.08 µM) | 4 µg/mL (≈ 6.17 µM) |  | 
0.5 µg/mL (≈ 0.771 µM) | 2 µg/mL (≈ 3.08 µM) | 1 µg/mL (≈ 1.54 µM) | 1 µg/mL (≈ 1.54 µM) | 0.636 µM | 1200 M⁻¹ s⁻¹ | 0.000764 s⁻¹ |  | 0.5 µg/mL (≈ 0.771 µM) | C=C[C@]1(C)C[C@@H](OC(=O)Cn2cc(CN3CCN(c4ccc([N+](=O)[O-])cc4)CC3)nn2)[C@]2(C)[C@H](C)CC[C@]3(CCC(=O)[C@H]32)[C@@H](C)[C@@H]1O [Compound 64, 22-(2-(4-(4-(4-Nitrophenyl)-piperazin-1-yl)-methyl)-1H-1,2,3-triazol-1-yl)-22-deoxy pleuromutilin] |  | higher than 4 × MIC | 1 µg/mL (≈ 1.54 µM) | 4 µg/mL (≈ 6.17 µM) | 2 µg/mL (≈ 3.08 µM) | 4 µg/mL (≈ 6.17 µM) | 2.21 log10 CFU/mL | 4.49 log10 CFU/mL
1 µg/mL (≈ 1.62 µM) | 4 µg/mL (≈ 6.47 µM) | 1 µg/mL (≈ 1.62 µM) | 2 µg/mL (≈ 3.24 µM) | 0.0232 µM | 170 M⁻¹ s⁻¹ | 3.93e-06 s⁻¹ |  |  | C=C[C@]1(C)C[C@@H](OC(=O)Cn2cc(CN3CCN(c4ccccc4C)CC3)nn2)[C@]2(C)[C@H](C)CC[C@]3(CCC(=O)[C@H]32)[C@@H](C)[C@@H]1O [Compound 50, 22-(2-(4-(4-(o-Tolyl)-piperazin-1-yl)-methyl)-1H-1,2,3-triazol-1-yl)-22-deoxy pleuromutilin] | relatively anti-MRSA bacteriostatic kinetics | higher than 4 × MIC | 2 µg/mL (≈ 3.24 µM) | 4 µg/mL (≈ 6.47 µM) | 2 µg/mL (≈ 3.24 µM) | 4 µg/mL (≈ 6.47 µM) |  | 
